Results reported in ChEMBL document CHEMBL3132854, “Synthesis and anticancer activity evaluation of resveratrolchalcone conjugates” (2014).

Columns and labels:
[1] = test system: SNB-75; experiment: Growth inhibition of human SNB75 cells assessed as cell growth at 10 uM by sulforhodamine B assay relative to control; values are per cent of control
[2] = test system: SK-OV-3; experiment: Growth inhibition of human SKOV3 cells assessed as cell growth at 10 uM by sulforhodamine B assay relative to control; values are per cent of control
[3] = test system: SN12C; experiment: Growth inhibition of human SN12C cells assessed as cell growth at 10 uM by sulforhodamine B assay relative to control; values are per cent of control
[4] = test system: CCRF-CEM; experiment: Growth inhibition of human CCRF-CEM cells assessed as cell growth at 10 uM by sulforhodamine B assay relative to control; format: functional; conditions: values are per cent of control
[5] = test system: MDA-MB-435; experiment: Growth inhibition of human MDA-MB-435 cells assessed as cell growth at 10 uM by sulforhodamine B assay relative to control; values are per cent of control
[6] = test system: 786-0; experiment: Growth inhibition of human 786-0 cells assessed as cell growth at 10 uM by sulforhodamine B assay relative to control; values are per cent of control
[7] = test system: NCI-H460; experiment: Growth inhibition of human NCI-H460 cells assessed as cell growth at 10 uM by sulforhodamine B assay relative to control; values are per cent of control
[8] = test system: K562; experiment: Growth inhibition of human K562 cells assessed as cell growth at 10 uM by sulforhodamine B assay relative to control; values are per cent of control
[9] = Growth inhibition of human HCC2998 cells assessed as cell growth at 10 uM by sulforhodamine B assay relative to control; values are per cent of control; conditions: HCC 2998
[10] = test system: OVCAR-8; experiment: Growth inhibition of human OVCAR8 cells assessed as cell growth at 10 uM by sulforhodamine B assay relative to control; values are per cent of control
[11] = test system: SNB-19; experiment: Growth inhibition of human SNB19 cells assessed as cell growth at 10 uM by sulforhodamine B assay relative to control; values are per cent of control
[12] = test system: MCF7; experiment: Growth inhibition of human MCF7 cells assessed as cell growth at 10 uM by sulforhodamine B assay relative to control; values are per cent of control
[13] = test system: PC-3; experiment: Growth inhibition of human PC3 cells assessed as cell growth at 10 uM by sulforhodamine B assay relative to control; values are per cent of control
[14] = test system: NCI-H522; experiment: Growth inhibition of human NCI-H522 cells assessed as cell growth at 10 uM by sulforhodamine B assay relative to control; values are per cent of control
[15] = test system: SK-MEL-5; experiment: Growth inhibition of human SK-MEL-5 cells assessed as cell growth at 10 uM by sulforhodamine B assay relative to control; values are per cent of control
[16] = Growth inhibition of human OVCAR5 cells assessed as cell growth at 10 uM by sulforhodamine B assay relative to control; values are per cent of control; conditions: OVCAR-5
[17] = test system: A498; experiment: Growth inhibition of human A498 cells assessed as cell growth at 10 uM by sulforhodamine B assay relative to control; values are per cent of control
[18] = Growth inhibition of human UACC257 cells assessed as cell growth at 10 uM by sulforhodamine B assay relative to control; values are per cent of control; conditions: UACC-257
[19] = test system: KM12; experiment: Growth inhibition of human KM12 cells assessed as cell growth at 10 uM by sulforhodamine B assay relative to control; values are per cent of control
[20] = test system: IGROV-1; experiment: Growth inhibition of human IGROV1 cells assessed as cell growth at 10 uM by sulforhodamine B assay relative to control; values are per cent of control
[21] = test system: U-251; experiment: Growth inhibition of human U251 cells assessed as cell growth at 10 uM by sulforhodamine B assay relative to control; values are per cent of control
[22] = test system: MDA-MB-468; experiment: Growth inhibition of human MDA-MB-468 cells assessed as cell growth at 10 uM by sulforhodamine B assay relative to control; values are per cent of control
[23] = test system: HT-29; experiment: Growth inhibition of human HT-29 cells assessed as cell growth at 10 uM by sulforhodamine B assay relative to control; values are per cent of control
[24] = Growth inhibition of human NCI-ADR-RES cells assessed as cell growth at 10 uM by sulforhodamine B assay relative to control; values are per cent of control
[25] = test system: HL-60(TB); experiment: Growth inhibition of human HL-60(TB) cells assessed as cell growth at 10 uM by sulforhodamine B assay relative to control; format: functional; conditions: values are per cent of control
[26] = test system: Malme-3M; experiment: Growth inhibition of human MALME-3M cells assessed as cell growth at 10 uM by sulforhodamine B assay relative to control; values are per cent of control
[27] = Growth inhibition of human UO31 cells assessed as cell growth at 10 uM by sulforhodamine B assay relative to control; values are per cent of control; conditions: UO-31
[28] = test system: NCI-H23; experiment: Growth inhibition of human NCI-H23 cells assessed as cell growth at 10 uM by sulforhodamine B assay relative to control; values are per cent of control
[29] = test system: ACHN; experiment: Growth inhibition of human ACHN cells assessed as cell growth at 10 uM by sulforhodamine B assay relative to control; values are per cent of control
[30] = test system: SK-MEL-28; experiment: Growth inhibition of human SK-MEL-28 cells assessed as cell growth at 10 uM by sulforhodamine B assay relative to control; values are per cent of control
[31] = test system: M14; experiment: Growth inhibition of human M14 cells assessed as cell growth at 10 uM by sulforhodamine B assay relative to control; values are per cent of control

| SMILES | growth, % of control at 10 µM [1] [%] | growth, % of control at 10 µM [2] [%] | growth, % of control at 10 µM [3] [%] | growth, % of control at 10 µM [4] [%] | growth, % of control at 10 µM [5] [%] | growth, % of control at 10 µM [6] [%] | growth, % of control at 10 µM [7] [%] | growth, % of control at 10 µM [8] [%] | growth, % of control at 10 µM [9] [%] | growth, % of control at 10 µM [10] [%] | growth, % of control at 10 µM [11] [%] | growth, % of control at 10 µM [12] [%] | growth, % of control at 10 µM [13] [%] | growth, % of control at 10 µM [14] [%] | growth, % of control at 10 µM [15] [%] | growth, % of control at 10 µM [16] [%] | growth, % of control at 10 µM [17] [%] | growth, % of control at 10 µM [18] [%] | growth, % of control at 10 µM [19] [%] | growth, % of control at 10 µM [21] [%] | also measured |
| --- | --- | --- | --- | --- | --- | --- | --- | --- | --- | --- | --- | --- | --- | --- | --- | --- | --- | --- | --- | --- | --- |
| COc1ccc(C(=O)/C=C/c2ccc(/C=C/c3ccc(F)cc3)cc2)cc1 | 104 | 99.1 | 102 | 104 | 98.9 | 95.3 | 104 | 86.3 | 94.1 | 106 | 100 | 93.9 | 106 | 84 | 104 | 102 | 87.5 | 101 | 104 | 100 | growth, % of control at 10 µM [20]: 112%; growth, % of control at 10 µM [22]: 112%; growth, % of control at 10 µM [23]: 104%; growth, % of control at 10 µM [24]: 96.1%; growth, % of control at 10 µM [25]: 101%; growth, % of control at 10 µM [26]: 99.9%; growth, % of control at 10 µM [27]: 94.4%; growth, % of control at 10 µM [28]: 98.1%; growth, % of control at 10 µM [29]: 102%; growth, % of control at 10 µM [30]: 112%; growth, % of control at 10 µM [31]: 95.2% |
| COc1ccc(C(=O)/C=C/c2ccc(/C=C/c3cc(OC)c(OC)c(OC)c3)cc2)cc1 | 59.8 | 102 | 56.7 | 19.6 | 41 | 67.8 | 59.6 | 14.4 | 94.1 | 28.4 | 74.4 | 30.6 | 52.2 | 5.55 | 62 | 117 | 80 | 72.5 | 29.2 | 36.3 | growth, % of control at 10 µM [20]: 6.66%; growth, % of control at 10 µM [22]: 51.9%; growth, % of control at 10 µM [23]: 36.2%; growth, % of control at 10 µM [24]: 50%; growth, % of control at 10 µM [25]: 21.5%; growth, % of control at 10 µM [26]: 66.8%; growth, % of control at 10 µM [27]: 40.5%; growth, % of control at 10 µM [28]: 43.5%; growth, % of control at 10 µM [29]: 68.1%; growth, % of control at 10 µM [30]: 84.7%; growth, % of control at 10 µM [31]: 67% |
| COc1ccc(C(=O)/C=C/c2ccc(/C=C/c3ccc(Cl)cc3)cc2)cc1 | 97.2 | 99.3 | 97.4 | 97.7 | 103 | 94 | 102 | 87.8 | 105 | 104 | 97.6 | 93 | 98.7 | 125 | 106 | 96.6 | 78.1 | 100 | 100 | 101 | growth, % of control at 10 µM [20]: 95.7%; growth, % of control at 10 µM [22]: 110%; growth, % of control at 10 µM [23]: 104%; growth, % of control at 10 µM [24]: 111%; growth, % of control at 10 µM [25]: 94.4%; growth, % of control at 10 µM [26]: 87.4%; growth, % of control at 10 µM [27]: 102%; growth, % of control at 10 µM [28]: 103%; growth, % of control at 10 µM [29]: 94.6%; growth, % of control at 10 µM [30]: 104%; growth, % of control at 10 µM [31]: 101% |
| COc1ccc(/C=C/c2ccc(/C=C/C(=O)c3ccc(Cl)cc3)cc2)cc1 | 100 | 102 | 99.8 | 97.2 | 95.3 | 91 | 101 | 87.3 | 99.9 | 109 | 97.5 | 89.5 | 108 | 106 | 107 | 102 | 76 | 101 | 96.3 | 99.7 | growth, % of control at 10 µM [22]: 113%; growth, % of control at 10 µM [23]: 93%; growth, % of control at 10 µM [24]: 109%; growth, % of control at 10 µM [25]: 92.2%; growth, % of control at 10 µM [26]: 103%; growth, % of control at 10 µM [27]: 80.7%; growth, % of control at 10 µM [28]: 100%; growth, % of control at 10 µM [29]: 110%; growth, % of control at 10 µM [30]: 112%; growth, % of control at 10 µM [31]: 104% |
